In article PMC1876254 (Plant Molecular Biology, 2007):

Target: T1, LeMTS1 (Solanum lycopersicum, UniProt Q1XBU5)
T1 sequence (Q1XBU5 44-609): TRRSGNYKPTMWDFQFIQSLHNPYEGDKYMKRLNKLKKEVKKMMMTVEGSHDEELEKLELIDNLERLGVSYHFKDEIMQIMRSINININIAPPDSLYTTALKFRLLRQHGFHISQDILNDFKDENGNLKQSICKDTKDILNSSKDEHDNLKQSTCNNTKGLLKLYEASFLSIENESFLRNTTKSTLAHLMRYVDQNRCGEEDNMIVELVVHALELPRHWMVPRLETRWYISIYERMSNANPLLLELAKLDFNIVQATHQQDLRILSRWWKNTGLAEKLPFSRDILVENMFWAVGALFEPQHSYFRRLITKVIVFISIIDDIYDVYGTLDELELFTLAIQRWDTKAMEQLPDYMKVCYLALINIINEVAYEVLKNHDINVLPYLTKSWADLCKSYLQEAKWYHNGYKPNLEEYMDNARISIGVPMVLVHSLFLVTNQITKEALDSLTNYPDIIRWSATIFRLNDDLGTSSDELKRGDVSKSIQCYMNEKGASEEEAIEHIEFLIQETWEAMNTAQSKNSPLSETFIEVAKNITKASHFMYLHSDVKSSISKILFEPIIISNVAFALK
Assay: terpene synthase assay, SPME GC-TOF-MS of products
Type: biochemical
Details: product (E)-nerolidol; 10 uM substrate, 10 mM MgCl2, 2 mM MnCl2, HEPES pH 7.5, 30 C, 1 h

CC(C)=CCC/C(C)=C/CC/C(C)=C/COP(=O)(O)OP(=O)(O)O [FPP] was tested, and the “terpene synthase assay, SPME GC-TOF-MS of products” value was “LeMTS1 was also able to utilize the sesquiterpene precursor farnesyl diphosphate (FPP) as substrate”.
